Results taken from patent publication US20230065462A1, “Pharmaceutical composition and use thereof” (HENAN TAIFENG BIOLOGICAL TECHNOLOGY CO., LTD., priority 2020, published 2023).
Entries after “also recorded” stand apart in the source; their conditions may differ.

Assays:
Format in all cases: in vivo, Leghorn chickens
cockscomb capillaries = assay: Cockscomb hemangioma model: number of capillaries (HE staining and computer image analysis); details: x±s, high-power field
Procedure: (§1) The experimental cocks were anesthetized through intramuscular injection of 0.1 mg/kg Sumianxin, fixed, and cleaned, and after being disinfected, each cockscomb was marked with gentian violet to form 4 circles with a diameter of 1 cm in turn on one side of the each cockscomb from front to back, and was injected at the center of each circle: the blank control group was injected with 0.5 mL of solvent (water for injection), the positive control group was injected with 0.5 mL of 5 mg/ml lauromacrogol injection, and the groups A-I were injected with 0.5 mL of the corresponding 13.2 mg/mL injection of compositions 1-9, respectively, and the standard is that the surface tissue of the cockscomb turns white and produces a skin hill. As the thickness of the cockscomb was 8˜10 mm, only one side of the cockscomb is injected subcutaneously, and the non-injected side of the contralateral side was used as the self-control group. After the injection, the cocks were continued to raise under uniform conditions, eaten and drunk freely until the material was obtained.
(§2) The tissues at the injection site were taken, fixed in 10% neutral formaldehyde fixative for 48 hours, embedded in paraffin, sectioned, stained with conventional HE, and examined by light microscope at 3 days, 7 days, 14 days, and 28 days after drug injection, respectively.
The processed tissue sections were sorted according to the number, and observed through an optical microscope. The changes in the number of blood vessels in each tissue section were observed under the adjusted high-power field of view (DABX400), and the changes in the number of apoptosis were observed by the TUNEL method. Five fields of view were randomly selected under the high-power field of view, and the image was analyzed using Tmage Proplus 6.0 software.
All data were processed with SPSS statistical software, and the data were expressed as x±s.

[1] = system: vascular endothelial cells; assay: Cockscomb hemangioma model: cell apoptosis detection (TUNEL method and computer image analysis); details: x±s, high-power field
Procedure: as §1
The TUNEL method is used for cell apoptosis detection including cell detection and tissue specimen detection. The principle is that deoxyuridine triphosphate is connected to the 3′-OH end of broken DNA in apoptotic cells by the catalysis of deoxyribonucleotide terminal transferase, and then is also bound to the luciferin antibody linked with horseradish peroxidase, and thus, the apoptotic cells can be accurately positioned through the bond of the luciferin antibody with the horseradish peroxidase substrate diaminobenzidine. […]

cockscomb [2] = assay: Cockscomb hemangioma model: HE staining, histopathological changes under light microscope
Text: The clean grade of male Leghorn chickens were selected and randomly divided into a blank control group, a positive control group and a pharmaceutical composition groups A-I, a total of 11 groups, each with 8 chickens. Four points were selected for the cockscomb of each cock as the drug injection point, and the cockscomb was observed, photographed, and sampled before the experiment and 3 days, 7 days, 14 days, and 28 days after the experiment.
as §1, §2

cockscomb [3] = assay: Cockscomb hemangioma model: general (naked eye) observation of cockscomb after drug injection
Text: Animals: 88 Leghorn chickens of clean grade and raised under uniform feeding conditions in the same batch, male, weighing 1000 1500 g, 10 12 weeks old, provided by the Animal Experimental Center of Qinglongshan Animal Breeding Farm in Jiangning, Nanjing. The cockscomb is required to be plump, smooth, ruddy, and no lesion. All animals are reared in the same laboratory according to the requirements of clean grade, and they can eat and drink freely. The experimental process complies with the People's Republic of China “Regulations on the Management of Laboratory Animals” and ethical requirements. Test drugs: each component of the drug composition is commercially available. Citric acid, paeoniflorin, and gallic acid are mixed at the ratio described in the following table to obtain com[…]-I, respectively. Then, each composition was dissolved in water for injection to obtain an injection with a concentration of 13.2 mg/mL. The positive control group used lauromacrogol parenteral solution (Specification: 10 mL: 100 mg, Shaanxi Tianyu Pharmaceutical Co., Ltd.) as a sclerosing agent, and was prepared into a 5 mg/ml injection with water for injection before use. The clean grade of male Leghorn chickens were selected and randomly divided into a blank control group, a positive control group and a pharmaceutical composition groups A-I, a total of 11 groups, each with 8 chickens. Four points were selected for the cockscomb of each cock as the drug injection point, and the cockscomb was observed, photographed, and sampled before the experiment and 3 days, 7 days, 14 days, and 28 days after the experiment. […] As the thickness of the cockscomb was 8 10 mm, only one side of the cockscomb is injected subcutaneously, and the non-injected side of the contralateral side was used as the self-control group. After the injection, the cocks were continued to raise under uniform conditions, eaten and drunk freely until the material was obtained. Before drug injection, the general condition of the cockscomb, including shape, color, thickness, surface condition, etc., were observed and recorded with photos. After the drug injection, the observation was performed every day, and included: the color change of the cockscomb, whether the epidermis has white spots, whether the edema occurs, whether tissue necrosis occurs on the surface, whether scab occurs, whether scar occurs, and whether the scab falls off, and the time distribution of fall off. The observation were recorded by taking photos at four time points, i.e., 3 days, 7 days, 14 days, and 28 days after the drug injection, and meanwhile, the experimental cock was anesthetized and the tissues at the injection site were taken and examined by light microscope.

Cockscomb edema after drug injection (cockscomb [3]; 0 d): no
Cockscomb appearance after drug injection (cockscomb [3]; 0 d, 0.5 mL subcutaneous injection per point): normal
Cockscomb appearance after drug injection (cockscomb [3]; 3 d): normal
Cockscomb edema after drug injection (cockscomb [3]; 3 d): mild edema
Cockscomb appearance after drug injection (cockscomb [3]; 7 d): normal
Cockscomb edema after drug injection (cockscomb [3]; 7 d): the edema decreased
Cockscomb appearance after drug injection (cockscomb [3]; 14 d): normal
Cockscomb appearance after drug injection (cockscomb [3]; 28 d): normal
Cockscomb edema after drug injection (cockscomb [3]; 28 d): with no edema and with scar
appearance of the cockscomb (cockscomb [3]; throughout the experiment): remained normal
Substance: lauromacrogol [Positive control group]
number of capillaries (cockscomb capillaries; 3 d): 47.05 ± 4.12
number of capillaries (cockscomb capillaries; 7 d): 41.89 ± 4.25
number of capillaries (cockscomb capillaries; 14 d): 36.59 ± 3.62
number of capillaries (cockscomb capillaries; 28 d): 24.68 ± 4.33
number of apoptotic cells ([1]; 3 d): 21.02 ± 3.56
number of apoptotic cells ([1]; 7 d): 36.78 ± 3.87
number of apoptotic cells ([1]; 14 d): 54.68 ± 3.65
number of apoptotic cells ([1]; 28 d): 68.62 ± 3.27
The internal and external conditions of subcutaneous capillary lumens of cockscomb after drug injection (cockscomb [2]; 3 d): inflammatory cells in the peripheral tissues were infiltrated, interstitial edema was obvious, and a small amount of collagen fibers proliferated
The morphology and number of subcutaneous capillaries of cockscomb after drug injection (cockscomb [2]; 3 d): subcutaneous capillaries were destroyed and fused
The internal and external conditions of subcutaneous capillary lumens of cockscomb after drug injection (cockscomb [2]; 7 d): collagen fibers were further proliferated, and inflammatory cells infiltrated and interstitial edema decreased
The morphology and number of subcutaneous capillaries of cockscomb after drug injection (cockscomb [2]; 7 d): capillaries were further decreased
The internal and external conditions of subcutaneous capillary lumens of cockscomb after drug injection (cockscomb [2]; 14 d): collagen fibers continued to proliferate
The morphology and number of subcutaneous capillaries of cockscomb after drug injection (cockscomb [2]; 14 d): the number of blood vessels continued to decrease
The internal and external conditions of subcutaneous capillary lumens of cockscomb after drug injection (cockscomb [2]; 28 d): filled with a large number of collagen fibers
The morphology and number of subcutaneous capillaries of cockscomb after drug injection (cockscomb [2]; 28 d): the capillaries were significantly reduced
The color and scab at the cockscomb injection site after drug injection (cockscomb [3]; 0 d): white skin hills
The color and scab at the cockscomb injection site after drug injection (cockscomb [3]; 3 d): dark red
The color and scab at the cockscomb injection site after drug injection (cockscomb [3]; 7 d): light yellow
Cockscomb edema after drug injection (cockscomb [3]; 14 d): the edema gradually decreased; also recorded: faintly edema
The color and scab at the cockscomb injection site after drug injection (cockscomb [3]; 14 d): the center part of the drug injection site had a black scab, the surrounding part was yellow
The color and scab at the cockscomb injection site after drug injection (cockscomb [3]; 28 d): the black scab at the injection site fell off, became light yellow
